pIC50: −log10 of the molar value.
Molecular target: T1, 1,25-dihydroxyvitamin D(3) 24-hydroxylase, mitochondrial (Homo sapiens, UniProt Q07973)
T1 sequence (Q07973 whole entry): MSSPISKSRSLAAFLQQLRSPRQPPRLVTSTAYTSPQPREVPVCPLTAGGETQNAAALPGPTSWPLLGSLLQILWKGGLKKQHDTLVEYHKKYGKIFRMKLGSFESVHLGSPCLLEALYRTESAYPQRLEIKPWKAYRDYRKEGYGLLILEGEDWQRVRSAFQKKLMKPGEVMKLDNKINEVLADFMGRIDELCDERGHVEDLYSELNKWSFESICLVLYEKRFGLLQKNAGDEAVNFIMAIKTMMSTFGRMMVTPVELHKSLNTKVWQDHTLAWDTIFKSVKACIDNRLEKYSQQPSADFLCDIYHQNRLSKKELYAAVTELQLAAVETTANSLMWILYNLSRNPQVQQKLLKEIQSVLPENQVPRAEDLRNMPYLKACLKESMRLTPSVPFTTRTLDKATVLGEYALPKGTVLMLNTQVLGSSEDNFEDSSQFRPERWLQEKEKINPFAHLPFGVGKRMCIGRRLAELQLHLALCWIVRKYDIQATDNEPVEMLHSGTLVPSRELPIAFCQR
Assay: Inhibition of MBP-tagged human CYP24A1 expressed Escherichia coli BL21-Gold(DE3) incubated for 25 mins in presence of Adx, AdR 1,25(OH)2D3 and NADPH by HPLC method

Compound	pIC50
O=C(NCC(c1ccc(C(F)(F)F)cc1)n1ccnc1)c1cccc(/C=C/c2ccccc2)c1 (stereo not given)	6.82
Cc1ccc(C(CNC(=O)c2ccc(/C=C/c3ccccc3)cc2)n2ccnc2)cc1C (stereo not given)	6.51
O=C(NCC(c1ccccc1C(F)(F)F)n1ccnc1)c1ccc(/C=C/c2ccccc2)cc1 (stereo not given)	6.46
O=C(NCC(c1ccc(C(F)(F)F)cc1)n1ccnc1)c1ccc(/C=C/c2ccccc2)cc1 (stereo not given)	6.74
COc1ccc(/C=C/c2ccc(C(=O)NCC(c3ccc(Cl)cc3)n3ccnc3)cc2)cc1OC (stereo not given)	6.92
O=C(NCC(c1ccccc1)n1ccnc1)c1cccc(/C=C/c2ccccc2)c1 (stereo not given)	6.72
O=C(NCC(c1ccccc1)n1ccnc1)c1cccc(/C=C/c2ccccc2C(F)(F)F)c1 (stereo not given)	6.47
O=C(NCC(c1ccc(Cl)cc1)n1ccnc1)c1cccc(/C=C/c2ccccc2)c1 (stereo not given)	6.80
COc1ccc(C(CNC(=O)c2ccc(/C=C/c3ccccc3)cc2)n2ccnc2)cc1 (stereo not given)	6.96
O=C(NCC(c1ccc(Cl)cc1)n1ccnc1)c1ccc(/C=C/c2ccccc2)cc1 (stereo not given)	6.68
